For one compound, inhibition results are on record in ChEMBL document CHEMBL1641528, “Reverse type I inhibitor of Mycobacterium tuberculosis CYP125A1” (Bioorg Med Chem Lett, 2011).

Usually inhibition stands for the relative decrease from the control value, in per cent.

For this assay, the target named is T1, Steroid C26-monooxygenase (Mycobacterium tuberculosis, UniProt P9WPP1).
T1 sequence (P9WPP1 whole entry): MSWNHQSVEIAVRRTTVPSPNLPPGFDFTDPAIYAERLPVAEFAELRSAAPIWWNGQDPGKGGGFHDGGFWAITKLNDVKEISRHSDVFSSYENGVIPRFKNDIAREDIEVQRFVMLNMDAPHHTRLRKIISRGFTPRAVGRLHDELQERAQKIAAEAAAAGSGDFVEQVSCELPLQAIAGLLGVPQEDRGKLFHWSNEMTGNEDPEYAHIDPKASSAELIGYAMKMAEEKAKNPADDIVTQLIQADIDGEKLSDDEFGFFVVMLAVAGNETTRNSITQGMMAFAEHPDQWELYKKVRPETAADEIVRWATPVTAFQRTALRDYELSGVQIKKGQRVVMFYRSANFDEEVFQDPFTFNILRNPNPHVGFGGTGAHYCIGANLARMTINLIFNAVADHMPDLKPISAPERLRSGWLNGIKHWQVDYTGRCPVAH
Description: Inhibition of Mycobacterium tuberculosis H37Rv CYP125A1 expressed in Escherichia coli at 200 uM.

As for `CC1CCC(C(=O)NC(Cc2c[nH]c3ccccc23)C(=O)Nc2ccncc2)CC1` (stereo unspecified), at 200 µM the inhibition was 30%.
